Key:
[1] = test system: nitrobacteria; assay: nitrification inhibition activity in air-dry soil with urea; settings: for Nitrification inhibition rate dN / Mass fraction of nitrate nitrogen in the sample solution ω1: 10.00 g air-dry soil, 0.10 g urea, 48 h; for Mass fraction of nitrate nitrogen in the sample solution ω1: control ω2=948.6
Procedure: 2. A method for determining nitrification inhibition activity is as follows. […] 4-iodopyrazole coordination compound prepared in Embodiment 1 were respectively weighed, and placed into 500 ml conical flasks respectively; 10.00 g of air-dry soil, 0.10 g of urea and 100 mL of phosphate buffer were added to each flask; the conical flasks were simultaneously place into a thermostatic culture oscillator (180 rpm) for oscillation for 48 h, and then the resulting solutions were filtered to determine mass fraction ω1 of nitrate nitrogen (including nitrite nitrogen) in the sample and the control sample solution respectively. Calculation of nitrification inhibition rate: the nitrification inhibition rate of binuclear ligands with different addition amounts was calculated, and the results are shown in Table 2. [formula] • where dN is nitrification inhibition rate (%); • ω1 is mass fraction of nitrate nitrogen (including nitrite nitrogen) in the sample; and • ω2 is mass fraction of nitrate nitrogen (including nitrite nitrogen) in the control sample, and ω2=948.6.

[2] = biological target: urease (Canavalia ensiformis, UniProt P07374); settings: read-out: IC50 of urease inhibition; urease 10 KU/L, preincubated 1 h at 37° C., phosphate buffer pH 6.8 with 500 mM urea; modified Karber method
Chain of urease (P07374 whole entry, looked up): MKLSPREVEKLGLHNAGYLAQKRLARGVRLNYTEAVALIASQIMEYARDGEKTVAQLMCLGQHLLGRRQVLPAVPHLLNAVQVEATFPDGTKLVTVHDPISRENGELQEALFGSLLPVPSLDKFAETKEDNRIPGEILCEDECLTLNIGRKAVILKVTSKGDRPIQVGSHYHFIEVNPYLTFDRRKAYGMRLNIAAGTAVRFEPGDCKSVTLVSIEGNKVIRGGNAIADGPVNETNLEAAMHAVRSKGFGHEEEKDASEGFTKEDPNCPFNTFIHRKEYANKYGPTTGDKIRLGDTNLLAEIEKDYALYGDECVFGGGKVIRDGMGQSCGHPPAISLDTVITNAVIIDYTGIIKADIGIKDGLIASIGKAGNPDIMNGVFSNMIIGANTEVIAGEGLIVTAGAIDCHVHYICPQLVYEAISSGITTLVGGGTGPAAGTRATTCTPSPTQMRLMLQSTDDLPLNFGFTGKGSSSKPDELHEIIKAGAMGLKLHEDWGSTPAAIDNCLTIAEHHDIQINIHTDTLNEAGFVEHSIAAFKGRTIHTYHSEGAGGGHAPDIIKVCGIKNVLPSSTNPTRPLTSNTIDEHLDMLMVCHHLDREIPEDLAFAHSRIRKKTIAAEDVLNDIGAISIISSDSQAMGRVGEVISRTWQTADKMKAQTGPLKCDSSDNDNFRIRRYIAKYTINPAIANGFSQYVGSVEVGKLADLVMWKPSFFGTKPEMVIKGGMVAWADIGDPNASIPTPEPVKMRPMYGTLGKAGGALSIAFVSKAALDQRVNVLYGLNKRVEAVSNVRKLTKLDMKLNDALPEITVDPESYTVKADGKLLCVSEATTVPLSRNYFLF
Procedure: An endpoint of the testing was determined by the phenol red indicator, and the testing was stopped when the solution changed from pale yellow to red.

**Q.** For `Ic1cn[nH]c1.Ic1cn[nH]c1.[Cl][Cu][Cl]` [copper chloride-linked 4-iodopyrazole coordination compound], which nitrification inhibition rates ([1]; all addition amounts of Table 2) is on record?
**A.** The nitrification inhibition rates was “greater than 9%”.

**Q.** What about the “Nitrification inhibition rate dN” value ([1]; mass of compound 0.03 g) of the same compound?
**A.** Its value is 9.16%.

**Q.** What about the “Mass fraction of nitrate nitrogen in the sample solution ω1” value (“Mass fraction of nitrate nitrogen” below) ([1]; mass of compound 0.03 g) of the same compound?
**A.** Its value is 861.7.

**Q.** And the “Nitrification inhibition rate dN” value ([1]; mass of compound 0.05 g)?
**A.** Its value is 9.79%.

**Q.** And the “Mass fraction of nitrate nitrogen” value ([1]; mass of compound 0.05 g)?
**A.** The value was 855.8.

**Q.** What about the “Nitrification inhibition rate dN” value ([1]; mass of compound 0.07 g) of the same compound?
**A.** Its value is 11.09%.

**Q.** And the “Mass fraction of nitrate nitrogen” value ([1]; mass of compound 0.07 g)?
**A.** Its value is 843.4.

**Q.** What about the “Nitrification inhibition rate dN” value ([1]; mass of compound 0.10 g) of the same compound?
**A.** Its value is 15.57%.

**Q.** And the “Mass fraction of nitrate nitrogen” value ([1]; mass of compound 0.10 g)?
**A.** Its value is 800.9.

**Q.** And the IC50 [2]?
**A.** Its IC50 is 2580 ± 40 nM.

Source: patent US12435010B1, “4-iodopyrazole coordination compound and preparation method and use thereof” (Institute of Applied Ecology, Chinese Academy of Sciences, priority 2024, dated 2025)
